Measurements: patent US8236935B2, “Gem-difluorinated C-glycoside compounds derived from podophyllotoxin, their preparation and their applications” (Institut National des Sciences Appliquees de Rouen (INSA), priority 2006, dated 2012)
pIC50: −log10 of the molar value. Several values for one entry are separate records, joined by “and”; a condition that tells them apart may be missing. Equal entries are not always repeated.

How the values were obtained:
Type in all cases: cell-based
[1] = system: HT29 cells; test: cytotoxicity test, inhibition of cellular growth, HT29 cells; conditions: triplicate; for inhibition percentage of cellular growth: 10^−5M
Description: (§1) The first cytotoxicity tests were conducted on different cell lines such as KB, PC3, MCF7 and MCF7R, SF268, HL60, HT29, A549 cells at concentrations of 10^−5M in triplicate. Podophyllotoxin 1 and etoposide 2 were also tested under the same conditions as standards.
(§2) The results are expressed as an inhibition percentage of cellular growth.

[2] = system: MCF7R cells; test: cytotoxicity test, inhibition of cellular growth, MCF7R cells; conditions: 10^−5M, triplicate
Description: as §1, §2

[3] = system: KB cells; test: cytotoxicity test, inhibition of cellular growth, KB cells; conditions: 10^−5M; for inhibition percentage of cellular growth / inhibition at 10 µM: triplicate; for inhibition at 10 µM: Homo sapiens, read-out: inhibition percentage of cellular growth
Description: as §1, §2

[4] = system: HL60 cells; test: cytotoxicity test, inhibition of cellular growth, HL60 cells; conditions: triplicate; for inhibition percentage of cellular growth: 10^−5M
Description: as §1, §2

[5] = system: A549 cells; test: cytotoxicity test, inhibition of cellular growth, A549 cells; conditions: 10^−5M, triplicate
Description: as §1, §2

[6] = system: MCF7 cells; test: cytotoxicity test, inhibition of cellular growth, MCF7 cells; conditions: 10^−5M, triplicate
Description: as §1, §2

[7] = system: SF268 cells; test: cytotoxicity test, inhibition of cellular growth, SF268 cells; conditions: triplicate; for inhibition percentage of cellular growth: 10^−5M
Description: as §1, §2

[8] = system: PC3 cells; test: cytotoxicity test, inhibition of cellular growth, PC3 cells; conditions: triplicate; for inhibition percentage of cellular growth: 10^−5M
Description: as §1, §2

[9] = system: KB cells; test: IC50 of cytotoxicity on KB cells; conditions: in duplicate (two values per cell, separated by /)
Text: The IC50 values are expressed in μM on KB cells in duplicate and were obtained for the […] leading compounds, i.e. 27a, 32a, 44a, 37a and 46a in parallel with podophyllotoxin and etoposide.

[10] = system: KB, PC3, MCF7 and MCF7R, SF268, HL60, HT29, A549 cells; test: cytotoxicity tests on the panel of cell lines, overall comparison with standards; conditions: 10^−5M
Description: as §1, §2

[11] = Homo sapiens, read-out: inhibition percentage of cellular growth

## COc1cc(C2c3cc4c(cc3C(NC(=O)C(F)(F)C3(O)OC5COC(C)OC5C(O)C3O)C3COC(=O)C23)OCO4)cc(OC)c1OC (stereo not shown) [29a]
[1]
  inhibition percentage of cellular growth: 17%
[2]
  inhibition percentage of cellular growth: 44%
[3]
  inhibition percentage of cellular growth: 66%
[4]
  inhibition percentage of cellular growth: 17%
[5]
  inhibition percentage of cellular growth: 6%
[6]
  inhibition percentage of cellular growth: 40%
[7]
  inhibition percentage of cellular growth: 11%
[8]
  inhibition percentage of cellular growth: 8%

## COc1cc(C2c3cc4c(cc3C(NC(=O)C(F)(F)C3(O)OC5COC(C)OC5C(O)C3O)C3COC(=O)C23)OCO4)cc(OC)c1OC (stereo not shown) [29b]
[1]
  inhibition percentage of cellular growth: 6%
[2]
  inhibition percentage of cellular growth: 7%
[3]
  inhibition percentage of cellular growth: 0%
[4]
  inhibition percentage of cellular growth: 0%
[5]
  inhibition percentage of cellular growth: 1%
[6]
  inhibition percentage of cellular growth: 7%
[7]
  inhibition percentage of cellular growth: 6%
[8]
  inhibition percentage of cellular growth: 3%

## COc1cc([C@@H]2c3cc4c(cc3[C@@H](O[C@@H]3O[C@@H]5CO[C@@H](C)O[C@H]5[C@H](O)[C@H]3O)[C@H]3COC(=O)[C@H]23)OCO4)cc(OC)c1O [Etoposide, etoposide, reference compound]
[1]
  inhibition percentage of cellular growth: 79%
[2]
  inhibition percentage of cellular growth: 22%
[3]
  inhibition percentage of cellular growth: 84%
[4]
  inhibition percentage of cellular growth: 75%
[5]
  inhibition percentage of cellular growth: 65%
[6]
  inhibition percentage of cellular growth: 57%
[7]
  inhibition percentage of cellular growth: 82%
[8]
  inhibition percentage of cellular growth: 47%

## COc1cc([C@@H]2c3cc4c(cc3[C@H](O)[C@H]3COC(=O)[C@H]23)OCO4)cc(OC)c1OC [Podophyllotoxin 1, Podophyllotoxin]
[1]; Homo sapiens, HT-29, 10^−5M, read-out: inhibition percentage of cellular growth
  inhibition at 10 µM: 84%
[9]; Homo sapiens, KB
  pIC50: 7.82
[9]
  pIC50: 7.66
[2]; [11]
  inhibition at 10 µM: 55%
[3]
  inhibition at 10 µM: 90%
[4]; Homo sapiens, HL-60, 10^−5M, read-out: inhibition percentage of cellular growth
  inhibition at 10 µM: 74%
[5]; [11]
  inhibition at 10 µM: 83%
[6]; [11]
  inhibition at 10 µM: 55%
[7]; Homo sapiens, SF-268, 10^−5M, read-out: inhibition percentage of cellular growth
  inhibition at 10 µM: 74%
[8]; Homo sapiens, PC-3, 10^−5M, read-out: inhibition percentage of cellular growth
  inhibition at 10 µM: 65%

## COc1cc([C@@H]2c3cc4c(cc3[C@@H](NC(=O)C(F)(F)[C@]3(O)O[C@H](CO)[C@@H](O)[C@H](O)[C@H]3O)[C@H]3COC(=O)[C@H]23)OCO4)cc(OC)c1O [compound 26a]
[1]
  inhibition percentage of cellular growth: 10%
[2]
  inhibition percentage of cellular growth: 35%
[3]
  inhibition percentage of cellular growth: 43%
[4]
  inhibition percentage of cellular growth: 17%
[5]
  inhibition percentage of cellular growth: 23%
[6]
  inhibition percentage of cellular growth: 37%
[7]
  inhibition percentage of cellular growth: 7%
[8]
  inhibition percentage of cellular growth: 10%

## COc1cc([C@@H]2c3cc4c(cc3[C@@H](NC(=O)C(F)(F)[C@]3(O)O[C@H](CO)[C@H](O)[C@H](O)[C@H]3O)[C@H]3COC(=O)[C@H]23)OCO4)cc(OC)c1O [compound 26b]
[1]
  inhibition percentage of cellular growth: 13%
[2]
  inhibition percentage of cellular growth: 16%
[3]
  inhibition percentage of cellular growth: 12%
[4]
  inhibition percentage of cellular growth: 19%
[5]
  inhibition percentage of cellular growth: 7%
[6]
  inhibition percentage of cellular growth: 20%
[7]
  inhibition percentage of cellular growth: 7%
[8]
  inhibition percentage of cellular growth: 8%

## COc1cc(C2c3cc4c(cc3C(NC(=O)C(F)(F)C3(O)OC(CO)C(O)C(O)C3O)C3COC(=O)C23)OCO4)cc(OC)c1OC (stereo not shown) [compound 27a]
[1]
  inhibition percentage of cellular growth: 87%
[9]
  pIC50: 5.46 and 5.59
[2]
  inhibition percentage of cellular growth: 70%
[3]
  inhibition percentage of cellular growth: 91%
[4]
  inhibition percentage of cellular growth: 79%
[5]
  inhibition percentage of cellular growth: 78%
[6]
  inhibition percentage of cellular growth: 53%
[7]
  inhibition percentage of cellular growth: 65%
[8]
  inhibition percentage of cellular growth: 63%
[10]
  activity compared with etoposide and podophyllotoxin (in words): activity comparable with that of etoposide and of podophyllotoxin, and even better on certain cell lines

## COc1cc(C2c3cc4c(cc3C(NC(=O)C(F)(F)C3(O)OC(CO)C(O)C(O)C3O)C3COC(=O)C23)OCO4)cc(OC)c1OC (stereo not shown) [compound 27b]
[1]
  inhibition percentage of cellular growth: 8%
[2]
  inhibition percentage of cellular growth: 10%
[3]
  inhibition percentage of cellular growth: 12%
[4]
  inhibition percentage of cellular growth: 19%
[5]
  inhibition percentage of cellular growth: 6%
[6]
  inhibition percentage of cellular growth: 20%
[7]
  inhibition percentage of cellular growth: 7%
[8]
  inhibition percentage of cellular growth: 8%

## COc1cc([C@@H]2c3cc4c(cc3[C@@H](N(C)C(=O)C(F)(F)[C@]3(O)O[C@H](COCc5ccccc5)[C@@H](OCc5ccccc5)[C@H](OCc5ccccc5)[C@H]3OCc3ccccc3)C3COC(=O)[C@@H]32)OCO4)cc(OC)c1OC (stereo partly shown) [compound 31a]
[3]
  inhibition at 10 µM: 22%

## COc1cc(C2c3cc4c(cc3C(NCC(F)(F)C3(O)OC(CO)C(O)C(O)C3O)C3COC(=O)C23)OCO4)cc(OC)c1OC (stereo not shown) [compound 32a]
[3]
  cytotoxicity compared with etoposide and podophyllotoxin (in words): cytotoxicity close to that of etoposide and podophyllotoxin
  inhibition percentage of cellular growth: 94%

## COc1cc([C@@H]2c3cc4c(cc3[C@@H](NC(=O)C(F)(F)C3(Cl)O[C@H](CO)[C@@H](O)[C@H](O)[C@H]3O)C3COC(=O)[C@@H]32)OCO4)cc(OC)c1OC (stereo partly shown) [compound 37a]
[9]; Homo sapiens, KB
  pIC50: 6.56
[9]
  pIC50: 6.51
[3]
  cytotoxicity compared with etoposide and podophyllotoxin (in words): cytotoxicity close to that of etoposide and podophyllotoxin
  inhibition at 10 µM: 91%

## COc1cc([C@@H]2c3cc4c(cc3[C@@H](NC(=O)C(F)(F)[C@@H]3O[C@H](CO)[C@@H](O)[C@H](O)[C@H]3O)C3COC(=O)[C@@H]32)OCO4)cc(OC)c1OC (stereo partly shown) [compound 44a]
[9]; Homo sapiens, KB
  pIC50: 6.49
[9]
  pIC50: 6.47
[3]
  cytotoxicity compared with etoposide and podophyllotoxin (in words): cytotoxicity close to that of etoposide and podophyllotoxin
  inhibition at 10 µM: 90%

## COc1cc(C2c3cc4c(cc3C(NCC(F)(F)C3(O)OC5COC(C)OC5C(O)C3O)C3COC(=O)C23)OCO4)cc(OC)c1OC (stereo not shown) [compound 46a]
[9]
  pIC50: 5.33 and 5.22
[3]
  cytotoxicity compared with etoposide and podophyllotoxin (in words): cytotoxicity close to that of etoposide and podophyllotoxin
  inhibition percentage of cellular growth: 86%
